Source: patent US5183906A, “2- and 5-alkyl and phenyl substituted 4-(1-hydroxy, 1-acyloxy or 1-carbamoyloxy)-5-hydroxy-2 (5H)-furanones as anti-inflammatory agents” (Allergan, Inc., priority 1991, dated 1993)
Like-named read-outs stand apart in the source and are kept apart here.

Key:
[1] = system: Calcium^2+ Channel; assay: Calcium^2+ Channel Mobilization Inhibition Assay; format: cell-based; conditions: cell type not stated
Procedure: Polymorphonuclear leukocytes (PMNa), gastric glands, GH3 cells, A431 cells, spleen cells, human keratinocytes corneal cells, etc. were loaded with the Ca^2+ sensitive fluorescent dye, Fura-2. The appropriate cell type was chosen and the potency and efficacy of the anti-inflammatory furanones on calcium mobilization, calcium channel inhibition was quantitated. The methods used for A431 cells listed below are representative of those used for other cells.
A431 cells were detached using a 5-10 min trypsin-EDTA treatment whereas GH3 cells were treated 2 to 5 min with a 1% pancreatin solution. Cells were immediately washed twice in a 20 mM HEPES buffer (pH 7.4) containing 120 mM NaCl, 6 mM KCl, 1 mM MgSO4, 1 mg/ml glucose and 1 mg/ml pyruvate and 1.4 mM calcium (medium A). Approximately 5×10^6 cells were suspended in medium A and incubated with 4uM fura-2-AM for 15 min at 37° C.
After washing the fura-2 loaded cells, the uptake of dye was checked using fluorescence microscopy and found to be evenly distributed in the cytosol of all cells. Fluorescence was continuously recorded with a Perkin-Elmer LS-5 spectrofluorometer. The excitation wavelength was set at 340 nm and emission wavelength set at 500 nm. The cell suspension was continually stirred, maintained at 37° C. and equilibrated for approximately 5 min before addition of various agents. [Ca^2+ i was calculated using the following formula: [formula]
All fluorescence values were measured relative to a EGTA-quenched signal determined as follows: F was the relative fluorescence measurement of the sample. Fmax was determined by lysing the cells with digitonin (100 ug/ml) in DMSO. After Fmax was determined the pH was adjusted to 8, with NaOH and Ca^2+ chelated with 3 mM EGTA to totally quench the fura-2 signal and obtain Fmin.
When quin-2- was used, cells were incubated with 10 uM quin-2- at 37° C. for 1 hour, washed and then used.

[2] = molecular target: bee venom phospholipase A2 (Apis mellifera, UniProt P00630); assay: biochemical; conditions: pH 7.4
[3] = KCl induced, read-out: IC50, Calcium^2+ Channel Mobilization Inhibition Assay, KCl induced
[4] = TRH induced, read-out: IC50, Calcium^2+ Channel Mobilization Inhibition Assay, TRH induced

Chain of bee venom phospholipase A2 (P00630 34-167 limits assumed): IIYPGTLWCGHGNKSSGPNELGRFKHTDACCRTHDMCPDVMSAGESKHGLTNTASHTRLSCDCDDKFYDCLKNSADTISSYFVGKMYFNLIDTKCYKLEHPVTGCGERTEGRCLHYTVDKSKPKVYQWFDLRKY

| SMILES | IC50 [1, 3] | IC50 [1, 4] | IC50 [2] |
| --- | --- | --- | --- |
| CCCCCCCCCCCCC(OC(C)=O)C1=CC(=O)OC1(C)O (stereo not shown) [Compound 1, 4-(1-Acetoxytridecyl)-5-hydroxy-5-methyl-2-furanone] | 7000 nM | 2500 nM | – |
| CCCCCCCCCCCCC(OC(C)=O)C1=C(C)C(=O)OC1O (stereo not shown) [Compound 2, 4-(1-Acetoxytridecyl)-3-methyl-5-hydroxy-2(5H)-furanone] | – | – | > 1000 nM |
| CCCCCCCCCCCCC(OC(=O)Nc1ccccc1)C1=CC(=O)OC1(C)O (stereo not shown) [Compound 4, 5-Methyl-5-hydroxy-4-(1-phenylcarbamoyloxy)tridecyl-2-furanone] | 800 nM | 500 nM | – |
| CC1=C(CC/C(C)=C/CCC2=CCC(C3=CC(=O)OC3O)OC2O)C(C)(C)CCC1 (stereo not shown) [manoalide, reference compound] | 800 nM | 600 nM | – |
